34 molecules from patent US8815891B2, “Tricyclic derivative or pharmaceutically acceptable salts thereof, preparation method thereof, and pharmaceutical composition containing the same” (Je Il Pharmaceutical Co., Ltd., priority 2008, dated 2014) can be followed below.

The structures appear in SMILES notation. Where a name gives a salt, the structure may show the parent alone. A value given as a limit tells only on which side of the number the result lay.

The target of one assay is PARP-1 enzyme (Homo sapiens (Human), UniProt P09874). Briefly: Poly(ADP-ribose)polymerase [PARP-1] enzyme inhibitory activity (Trevigen PARP Assay kit). In kind it is biochemical. To be noted: PARP-1 enzyme, histone ribosylation, 450 nm; read-out: PARP-1 Inhibitory activity IC50. As to the method: The activity of the compounds according to the present invention to inhibit the PARP-1 enzyme was examined using a PARP Assay kit (4671-096-K) purchased from Trevigen. The assay was performed following a modified previously reported method by Lee et al [Methods Find, Exp. Clin. Pharmacol., 27, 617-622, 2005].
Chain of PARP-1 enzyme (P09874 whole entry): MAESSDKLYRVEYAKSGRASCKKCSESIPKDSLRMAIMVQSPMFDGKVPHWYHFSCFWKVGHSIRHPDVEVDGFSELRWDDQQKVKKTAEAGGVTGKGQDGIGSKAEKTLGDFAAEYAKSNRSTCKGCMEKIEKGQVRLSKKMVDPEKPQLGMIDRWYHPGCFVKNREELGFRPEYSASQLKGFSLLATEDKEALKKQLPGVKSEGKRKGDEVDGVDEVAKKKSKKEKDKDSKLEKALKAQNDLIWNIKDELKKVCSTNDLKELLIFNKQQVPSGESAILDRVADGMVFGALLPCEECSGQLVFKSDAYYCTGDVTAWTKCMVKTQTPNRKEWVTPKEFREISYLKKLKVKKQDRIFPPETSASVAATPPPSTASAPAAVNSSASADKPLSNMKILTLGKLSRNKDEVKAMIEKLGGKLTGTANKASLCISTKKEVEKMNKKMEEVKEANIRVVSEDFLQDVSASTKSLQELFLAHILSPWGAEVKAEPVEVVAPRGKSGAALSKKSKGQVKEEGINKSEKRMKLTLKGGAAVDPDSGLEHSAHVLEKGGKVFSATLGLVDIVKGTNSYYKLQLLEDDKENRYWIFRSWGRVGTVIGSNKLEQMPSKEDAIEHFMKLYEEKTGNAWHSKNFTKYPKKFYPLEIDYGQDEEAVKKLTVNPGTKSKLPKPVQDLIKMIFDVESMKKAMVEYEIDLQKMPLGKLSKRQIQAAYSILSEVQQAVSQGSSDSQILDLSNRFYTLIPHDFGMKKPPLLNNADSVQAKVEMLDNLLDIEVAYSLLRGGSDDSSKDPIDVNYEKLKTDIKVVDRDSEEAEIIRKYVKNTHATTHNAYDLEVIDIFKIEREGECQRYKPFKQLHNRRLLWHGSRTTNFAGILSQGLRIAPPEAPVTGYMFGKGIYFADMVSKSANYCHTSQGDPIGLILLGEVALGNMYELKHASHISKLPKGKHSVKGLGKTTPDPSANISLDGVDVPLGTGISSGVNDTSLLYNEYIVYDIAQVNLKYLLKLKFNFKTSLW
Histone was coated on 384-well plate, which is a small volume PS plate (784101) of Greiner Bio-One, and left at 25° C. for 2 hours. After that, the plate was rinsed four times with PBS (7.5 mM Na2HPO4, 2.5 mM NaH2PO4, 145 mM NaCl, pH 7.4), and in order to prevent non-specific reaction, the Strep-diluent (provided from kit of Trevigen) was added and left at 25° C. for one hour. After one hour, the plate was again rinsed with PBS four times, and the compounds of the Examples in various concentrations were put into reactant containing PARP-1 enzyme (0.12 unit/well), 2×PARP cocktail (1.95 mM NAD^+, 50 uM biotinylated NAD^+, and activated DNA in 50 mM Tris pH 8.0, 25 mM MgCl2) and allowed to react at 25° C. for 30 minutes. After 30 minutes, each well was rinsed with PBS four times, and in order to measure the amount of rybosylation by the PARP enzyme, strepavidin-linked peroxidase (Strep-HRP, 1:1000 diluted) was added and allowed to react at 37° C. for 30 minutes. The plate was rinsed with PBS four times, and TACS-Sapphire substrate was put and allowed to react at 25° C. for 10 minutes so that color reaction occurred. Finally, the reaction was terminated by the addition of 0.2 N HCl. The amount of histone ribosylation formed by PARP-1 enzyme was quantified at 450 nm using Wallac EnVision™ (PerkinElmer Oy, Turku, Finland).
The term IC50 denotes the concentration at which inhibition is half-maximal. Regarding `COc1ccc2c3c(c(=O)[nH]c2c1)CCCN3` [Example 1, 8-Methoxy-1,2,3,4-tetrahydrobenzo[h][1,6]naphthyridine-5(6H)-one hydrochloride], the IC50 is greater than 4000 nM. On to `COc1ccc2[nH]c(=O)c3c(c2c1)NCCC3` [Example 3, 9-Methoxy-1,2,3,4-tetrahydrobenzo[h][1,6]naphthyridine-5(6H)-one hydrochloride], for which the IC50 was determined as 500 nM. For the molecule `CCCN1CCCc2c1c1cc(OC)ccc1[nH]c2=O` [Example 6, 9-Methoxy-1-propyl-1,2,3,4-tetrahydrobenzo[h][1,6]naphthyridine-5(6H)-one hydrochloride], the IC50 was greater than 4000 nM. `CN1CCCc2c1c1ccccc1[nH]c2=O` [Example 7, 1-Methyl-1,2,3,4-tetrahydrobenzo[h][1,6]naphthyridine-5(6H)-one hydrochloride]: the IC50 is greater than 4000 nM.

For `COc1ccc2[nH]c(=O)c3c(c2c1)N(C)CCC3` [Example 8, 9-Methoxy-1-methyl-1,2,3,4-tetrahydrobenzo[h][1,6]naphthyridine-5(6H)-one hydrochloride], the IC50 was greater than 4000 nM. For `CCN1CCCc2c1c1cc(OC)ccc1[nH]c2=O` [Example 9, 1-Ethyl-9-methoxy-1,2,3,4-tetrahydrobenzo[h][1,6]naphthyridine-5(6H)-one hydrochloride], the IC50 is greater than 4000 nM.

Turning to `CN1CCCc2c1c1cc(O)ccc1[nH]c2=O` [Example 10, 1-Methyl-9-hydroxy-1,2,3,4-tetrahydrobenzo[h][1,6]naphthyridine-5(6H)-one hydrochloride], the IC50 was greater than 4000 nM.

Regarding `CN1CCC(Oc2ccc3[nH]c(=O)c4c(c3c2)N(C)CCC4)CC1` [Example 14, 1-Methyl-9-(1-methylpiperidine-4-yloxy)-1,2,3,4-tetrahydrobenzo[h][1,6]naphthyridine-5(6H)-one dihydrochloride], the IC50 is greater than 4000 nM. With `CN(C)CCOc1ccc2[nH]c(=O)c3c(c2c1)NCCC3` [Example 16, 9-[2-(Dimethylamino)ethoxy]-1,2,3,4-tetrahydrobenzo[h][1,6]naphthyridine-5(6H)-one dihydrochloride], the IC50 was less than 1000 nM. As for `O=c1[nH]c2ccc(OCCCN3CCCCC3)cc2c2c1CCCN2` [Example 21, 9-[3-(Piperidine-1yl)propoxy]-1,2,3,4-tetrahydrobenzo[h][1,6]naphthyridine-5(6H)-one dihydrochloride], the IC50 is greater than 4000 nM. On the same count and under the same terms, for `O=c1[nH]c2ccc(OCCO)cc2c2c1CCCN2` [Example 24, 9-(2-Hydroxyethoxy)-1,2,3,4-tetrahydrobenzo[h][1,6]naphthyridine-5(6H)-one hydrochloride] the value was 1080 nM. As to `O=c1[nH]c2ccc(OCCc3ccccc3)cc2c2c1CCCN2` [Example 25, 9-Penethoxy-1,2,3,4-tetrahydrobenzo[h][1,6]naphthyridine-5(6H)-one dihydrochloride], the IC50 was greater than 4000 nM. Turning to `CCN(CC)CCOc1ccc2[nH]c(=O)c3c(c2c1)NCCC3` [Example 26, 9-[2-(Diethylamino)ethoxy]-1,2,3,4-tetrahydrobenzo[h][1,6]naphthyridine-5(6H)-one dihydrochloride], the IC50 is less than 1000 nM. With `CC[N+]1(CC)CCN(CCOc2ccc3[nH]c(=O)c4c(c3c2)NCCC4)CC1` [Example 28, 1,1-Diethyl-4-[2-(5-oxo-1,2,3,4,5,6-hexahydrobenzo[h][1,6]naphthyridine-9-yloxy]ethyl)piperazine-1-ium chloride], the IC50 was greater than 4000 nM. Same read-out and setting: for `CN(C)CCc1ccc2[nH]c(=O)c3c(c2c1)NCCC3` [Example 31, 9-[2-(Dimethylamino)ethyl]-1,2,3,4-tetrahydrobenzo[h][1,6]naphthyridine-5(6H)-one dihydrochloride] the value was 1070 nM. Still for that read-out and setting: under `CN(C)CCCc1ccc2[nH]c(=O)c3c(c2c1)NCCC3` [Example 33, 9-[3-(Dimethylamino)propyl]-1,2,3,4-tetrahydrobenzo[h][1,6]naphthyridine-5(6H)-one dihydrochloride] stands less than 1000 nM; under `CNC(C)c1ccc2c3c(c(=O)[nH]c2c1)CCCN3` (centres unmarked) [Example 39, 8-[1-(Methylamino)ethyl]-1,2,3,4-tetrahydrobenzo[h][1,6]naphthyridine-5(6H)-one dihydrochloride], less than 1000 nM. Still for that read-out and setting: for `CN(C)CCN(C)Cc1ccc2c3c(c(=O)[nH]c2c1)CCCN3` [Example 54, 8-{[(2-(Dimethylaminoethyl)(methyl)amino]methyl}-1,2,3,4-tetrahydrobenzo[h][1,6]naphthyridine-5(6H)-one trihydrochloride] the value was 930 nM.

Still in this assay, the particulars now being: read-out: PARP-1 Inhibitory activity IC50.
For `CCCN1CCC(Oc2ccc3[nH]c(=O)c4c(c3c2)NCCC4)CC1` [Example 11, 9-(1-Propylpiperidine-4-yloxy)-1,2,3,4-tetrahydrobenzo[h][1,6]naphthyridine-5(6H)-one dihydrochloride], the IC50 came out at 1030 nM. As to `CN1CCC(Oc2ccc3[nH]c(=O)c4c(c3c2)NCCC4)CC1` [Example 12, 9-(1-Methylpiperidine-4-yloxy)-1,2,3,4-tetrahydrobenzo[h][1,6]naphthyridine-5(6H)-one dihydrochloride], the IC50 is 1070 nM.

`CN1CCCc2c1c1cc(OC3CCNCC3)ccc1[nH]c2=O` [Example 13, 1-Methyl-9-(piperidine-4-yloxy)-1,2,3,4-tetrahydrobenzo[h][1,6]naphthyridine-5(6H)-one dihydrochloride]: the IC50 turned out to be 3850 nM.

For `CN(C)CCOc1ccc2[nH]c(=O)c3c(c2c1)NCCC3` [Example 16, 9-[2-(Dimethylamino)ethoxy]-1,2,3,4-tetrahydrobenzo[h][1,6]naphthyridine-5(6H)-one dihydrochloride], the IC50 was 370 nM.

As for `O=c1[nH]c2ccc(OCCN3CCNCC3)cc2c2c1CCCN2` [Example 19, 9-[2-(Piperazine-1yl)ethoxy]-1,2,3,4-tetrahydrobenzo[h][1,6]naphthyridine-5(6H)-one trihydrochloride], the IC50 was 1480 nM. Consider `NCCOc1ccc2[nH]c(=O)c3c(c2c1)NCCC3` [Example 22, 9-(2-Aminoethoxy)-1,2,3,4-tetrahydrobenzo[h][1,6]naphthyridine-5(6H)-one dihydrochloride], for which the IC50 amounted to 1160 nM.

On to `O=c1[nH]c2ccc(OCCN3CCC(c4ccccc4)CC3)cc2c2c1CCCN2` [Example 23, 9-[2-(4-Phenylpiperidine-1yl)ethoxy]-1,2,3,4-tetrahydrobenzo[h][1,6]naphthyridine-5(6H)-one dihydrochloride], for which the IC50 turned out to be 1430 nM. Take `CCN(CC)CCOc1ccc2[nH]c(=O)c3c(c2c1)NCCC3` [Example 26, 9-[2-(Diethylamino)ethoxy]-1,2,3,4-tetrahydrobenzo[h][1,6]naphthyridine-5(6H)-one dihydrochloride]: the IC50 amounted to 390 nM. Take `O=c1[nH]c2ccc(OCCN3CCOCC3)cc2c2c1CCCN2` [Example 27, 9-(2-Morpholinoethoxy)-1,2,3,4-tetrahydrobenzo[h][1,6]naphthyridine-5(6H)-one dihydrochloride]: the IC50 was determined as 2640 nM.

`CN1CCCc2c1c1cc(OCCN3CCCCC3)ccc1[nH]c2=O` [Example 30, 1-Methyl-9-[2-(piperidine-1-yl)ethoxy]-1,2,3,4-tetrahydrobenzo[h][1,6]naphthyridine-5(6H)-one dihydrochloride]: the IC50 turned out to be 3110 nM. Take `CN(C)CCCc1ccc2[nH]c(=O)c3c(c2c1)NCCC3` [Example 33, 9-[3-(Dimethylamino)propyl]-1,2,3,4-tetrahydrobenzo[h][1,6]naphthyridine-5(6H)-one dihydrochloride]: the IC50 worked out at 930 nM. In the case of `O=c1[nH]c2cc(OCCN3CCCCC3)ccc2c2c1CCCN2` [Example 35, 8-[2-(Piperidine-1yl)ethoxy]-1,2,3,4-tetrahydrobenzo[h][1,6]naphthyridine-5(6H)-one dihydrochloride], the IC50 was 3540 nM. With `CN(C)CCCOc1ccc2c3c(c(=O)[nH]c2c1)CCCN3` [Example 36, 8-[3-(Dimethylamino)propoxy]-1,2,3,4-tetrahydrobenzo[h][1,6]naphthyridine-5(6H)-one dihydrochloride], the IC50 came out at 3020 nM. `CNC(C)c1ccc2c3c(c(=O)[nH]c2c1)CCCN3` (centres unmarked) [Example 39, 8-[1-(Methylamino)ethyl]-1,2,3,4-tetrahydrobenzo[h][1,6]naphthyridine-5(6H)-one dihydrochloride]: the IC50 turned out to be 100 nM. In the case of `CCc1ccc2c3c(c(=O)[nH]c2c1)CCCN3` [Example 40, 8-Ethyl-1,2,3,4-tetrahydrobenzo[h][1,6]naphthyridine-5(6H)-one hydrochloride], the IC50 was greater than 4000 nM. As for `CC(C)NCc1ccc2c3c(c(=O)[nH]c2c1)CCCN3` [Example 45, 8-[(Isopropylamino)methyl]-1,2,3,4-tetrahydrobenzo[h][1,6]naphthyridine-5(6H)-one dihydrochloride], the IC50 came to 260 nM. The same measure, in the same setting: under `CCCNCc1ccc2c3c(c(=O)[nH]c2c1)CCCN3` [Example 46, 8-[(Propylamino)methyl]-1,2,3,4-tetrahydrobenzo[h][1,6]naphthyridine-5(6H)-one dihydrochloride] stands 590 nM; under `O=c1[nH]c2cc(CN3CCOCC3)ccc2c2c1CCCN2` [Example 49, 8-(Morpholinomethyl)-1,2,3,4-tetrahydrobenzo[h][1,6]naphthyridine-5(6H)-one dihydrochloride], 620 nM; under `CN(C)Cc1ccc2[nH]c(=O)c3c(c2c1)NCCC3` [Example 50, 9-[(Dimethylamino)methyl]-1,2,3,4-tetrahydrobenzo[h][1,6]naphthyridine-5(6H)-one dihydrochloride], 320 nM.

For the molecule `CN(Cc1ccccc1)Cc1ccc2c3c(c(=O)[nH]c2c1)CCCN3` [Example 51, 8-{[Benzyl(methyl)amino]methyl}-1,2,3,4-tetrahydrobenzo[h][1,6]naphthyridine-5(6H)-one dihydrochloride], the IC50 worked out at 930 nM.
